Data from US20150105252A1, “SUBSTITUTED PYRAZOLES AS HERBICIDES” (E I DU PONT DE NEMOURS AND COMPANY, priority 2013, published 2015).

Columns and labels:
[1] = system: crabgrass, large; assay: Test A preemergence; format: in vivo, Digitaria sanguinalis; details: preemergence
Outline: (§1)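 Growth medium: loam soil blended with sand. Preemergence treatment used a directed soil spray right after planting; postemergence treatment targeted seedlings at one to two leaves (2–10 cm height). Response was judged by eye relative to untreated plants about 10 days later on a 0–100 control scale.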

[2] = system: pigweed; assay: Test A preemergence; format: in vivo, Amaranthus retroflexus; details: preemergence
Outline: as §1

[3] = system: crabgrass, large; assay: Test A postemergence; format: in vivo, Digitaria sanguinalis
Outline: as §1

[4] = system: wheat; assay: Test A postemergence; format: in vivo, Triticum aestivum
Outline: as §1

[5] = system: corn; assay: Test A postemergence; format: in vivo, Zea mays
Outline: as §1

[6] = system: rice; assay: Test B flood; format: in vivo, Oryza sativa; details: 250 g ai/ha, visual rating on 0 to 100 scale (0 no effect, 100 complete control), 13 to 15 days
Outline: (§2)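 Plants were grown to the 2-leaf stage, then pots were flooded to 3 cm above the soil and compounds were applied directly into the paddy water. Water depth was held for the whole test; after 13 to 15 days in a greenhouse, injury was visually rated against untreated controls (0 = no effect, 100 = complete control).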

[7] = system: ducksalad; assay: Test B flood; format: in vivo, Heteranthera limosa; details: 250 g ai/ha, visual rating on 0 to 100 scale (0 no effect, 100 complete control), 13 to 15 days
Outline: as §2

[8] = system: wheat; assay: Test C preemergence; format: in vivo, Triticum aestivum; details: for Plant response rating (scale of 0 to 100), Wheat: Preemergence, 250 g ai/ha; for Wheat plant response rating / Plant response rating, Wheat: preemergence; for Plant response rating, Wheat: scale 0 to 100, 0 = no effect, 100 = complete control
Outline: (§3)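 Greenhouse pot test: preemergence application onto freshly seeded loam/sand mix, postemergence application onto seedlings (1–4 leaves, 2–18 cm) in peat-vermiculite substrate. Responses scored visually 13 to 15 days later relative to controls, where 0 means no effect and 100 means complete control; a dash indicates no result.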

[9] = system: galium; assay: Test C preemergence; format: in vivo, Galium aparine; details: for Plant response rating (scale of 0 to 100), Galium: Preemergence, 250 g ai/ha; for Galium plant response rating / Plant response rating, Galium: preemergence; for Plant response rating, Galium: scale 0 to 100, 0 = no effect, 100 = complete control
Outline: as §3

[10] = system: lambsquarters; assay: Test C preemergence; format: in vivo, Chenopodium album; details: for Plant response rating (scale of 0 to 100), Lambsquarters: Preemergence, 250 g ai/ha; for Lambsquarters plant response rating / Plant response rating, Lambsquarters: preemergence; for Plant response rating, Lambsquarters: scale 0 to 100, 0 = no effect, 100 = complete control
Outline: as §3

[11] = system: waterhemp; assay: Test C preemergence; format: in vivo, Amaranthus rudis; details: for Plant response rating (scale of 0 to 100), Waterhemp: Preemergence, 250 g ai/ha; for Waterhemp plant response rating / Plant response rating, Waterhemp: preemergence; for Plant response rating, Waterhemp: scale 0 to 100, 0 = no effect, 100 = complete control
Outline: as §3

[12] = system: wheat; assay: Test C postemergence; format: in vivo, Triticum aestivum; details: for Plant response rating (scale of 0 to 100 where 0 is no effect and 100 is complete control), Wheat: Postemergence, 31 g ai/ha, visually evaluated after 13 to 15 days; for Wheat plant response rating / Plant response rating, Wheat: postemergence; for Wheat plant response rating: 62 g ai/ha, scale 0 to 100
Outline: as §3

[13] = system: lambsquarters; assay: Test C postemergence; format: in vivo, Chenopodium album; details: for Plant response rating (scale of 0 to 100 where 0 is no effect and 100 is complete control), Lambsquarters: Postemergence, 31 g ai/ha, visually evaluated after 13 to 15 days; for Lambsquarters plant response rating / Plant response rating, Lambsquarters: postemergence; for Lambsquarters plant response rating: 62 g ai/ha, scale 0 to 100
Outline: as §3

[14] = system: barnyardgrass; assay: Test C postemergence; format: in vivo, Echinochloa crus-galli; details: for Plant response rating (scale of 0 to 100 where 0 is no effect and 100 is complete control), Barnyardgrass: Postemergence, 31 g ai/ha, visually evaluated after 13 to 15 days; for Barnyardgrass plant response rating / Plant response rating, Barnyardgrass: postemergence; for Barnyardgrass plant response rating: 62 g ai/ha, scale 0 to 100
Outline: as §3

[15] = 125 g ai/ha, visual injury, 0 to 100 scale, approx. 10 days
[16] = 500 g ai/ha, visual injury after approx. 10 days, 0 to 100 scale (0 no effect, 100 complete control)
[17] = Postemergence, 500 g ai/ha, visual rating after approx. 10 days, 0 to 100 scale (0 no effect, 100 complete control)
[18] = postemergence, 125 g ai/ha, about 10 days, visual rating on 0 to 100 scale (0 no effect, 100 complete control)
[19] = 31 g ai/ha, visual rating, scale 0 to 100 (0 no effect, 100 complete control), 13 to 15 days
[20] = 125 g ai/ha, scale 0 to 100, 0 is no effect, 100 is complete control
[21] = 250 g ai/ha, scale 0 to 100 (0 no effect, 100 complete control)
[22] = 125 g ai/ha, scale 0 to 100, 0 no effect, 100 complete control
[23] = 62 g ai/ha, scale 0 to 100 (0 no effect, 100 complete control), 13 to 15 days
[24] = Postemergence, 500 g ai/ha, 0 to 100 scale (0 no effect, 100 complete control)

| Compound | Crabgrass, Large plant response rating [1, 15] | Crabgrass, Large plant response rating [1, 16] | Pigweed plant response rating [2, 15] | Pigweed plant response rating [2, 16] | Crabgrass, Large plant response rating [3, 18] | Wheat plant response rating [4, 18] | Corn plant response rating [5, 18] | Plant response rating, Rice [6] | Plant response rating, Ducksalad [7] | Plant response rating (scale of 0 to 100), Wheat [8] | Wheat plant response rating [8, 19] | Plant response rating (scale of 0 to 100), Galium [9] | Galium plant response rating [9, 19] | Plant response rating (scale of 0 to 100), Lambsquarters [10] | Lambsquarters plant response rating [10, 19] | Plant response rating (scale of 0 to 100), Waterhemp [11] | Waterhemp plant response rating [11, 19] | Plant response rating (scale of 0 to 100 where 0 is no effect and 100 is complete control), Wheat [12] | Wheat plant response rating [12] | Plant response rating, Wheat [12, 21] | other results |
| --- | --- | --- | --- | --- | --- | --- | --- | --- | --- | --- | --- | --- | --- | --- | --- | --- | --- | --- | --- | --- | --- |
| CCOc1cc(C(=O)NCC(F)(F)F)nn1Cc1ccnc(C(F)(F)F)c1 [Compound 104] | 100 | 100 | 100 | 100 | 90 | 70 | 90 | 40 | 0 | 90 | 40 | 100 | 90 | 100 | 98 | 100 | 100 | 5 | 10 | 25 | Crabgrass, Large plant response rating [3, 17]: 90; Wheat plant response rating [4, 17]: 70; Corn plant response rating [5, 17]: 100; Plant response rating, Wheat ([8]; 62 g ai/ha, 13 to 15 days): 60; Wheat plant response rating [8, 20]: 90; Plant response rating, Galium ([9]; 62 g ai/ha, 13 to 15 days): 98; Galium plant response rating [9, 20]: 100; Plant response rating, Lambsquarters ([10]; 62 g ai/ha, 13 to 15 days): 98; Lambsquarters plant response rating [10, 20]: 100; Plant response rating, Waterhemp ([11]; 62 g ai/ha, 13 to 15 days): 100; Waterhemp plant response rating [11, 20]: 100; Plant response rating, Wheat [12, 22]: 10; Plant response rating (scale of 0 to 100 where 0 is no effect and 100 is complete control), Lambsquarters [13]: 80; Lambsquarters plant response rating [13]: 95; Plant response rating, Lambsquarters [13, 21]: 95; Plant response rating, Lambsquarters [13, 22]: 95; Plant response rating (scale of 0 to 100 where 0 is no effect and 100 is complete control), Barnyardgrass [14]: 5; Barnyardgrass plant response rating [14]: 5; Plant response rating, Barnyardgrass [14, 21]: 90; Plant response rating, Barnyardgrass [14, 22]: 45 |
| CCCc1cc(C(=O)NCC(F)(F)F)nn1Cc1ccnc(C(F)(F)F)c1 [Compound 105] | 100 | 100 | 100 | 100 | 100 | 100 | 80 | 90 | 95 | 90 | 75 | 100 | 100 | 100 | 85 | 100 | 100 | 5 | 5 | 45 | Crabgrass, Large plant response rating [3, 17]: 100; Wheat plant response rating [4, 17]: 100; Corn plant response rating [5, 17]: 100; Wheat plant response rating [8, 23]: 85; Wheat plant response rating [8, 20]: 90; Galium plant response rating [9, 23]: 100; Galium plant response rating [9, 20]: 100; Lambsquarters plant response rating [10, 23]: 100; Lambsquarters plant response rating [10, 20]: 100; Waterhemp plant response rating [11, 23]: 100; Waterhemp plant response rating [11, 20]: 100; Plant response rating, Wheat [12, 22]: 10; Plant response rating (scale of 0 to 100 where 0 is no effect and 100 is complete control), Lambsquarters [13]: 75; Lambsquarters plant response rating [13]: 95; Plant response rating, Lambsquarters [13, 21]: 98; Plant response rating, Lambsquarters [13, 22]: 95; Plant response rating (scale of 0 to 100 where 0 is no effect and 100 is complete control), Barnyardgrass [14]: 10; Barnyardgrass plant response rating [14]: 20; Plant response rating, Barnyardgrass [14, 21]: 85; Plant response rating, Barnyardgrass [14, 22]: 45 |
| CCCc1cc(C(=O)NCC)nn1Cc1cc(C(F)(F)F)nn1C [Compound 129] | 100 | 100 | 100 | 100 | 80 | 50 | 50 | 40 | 95 | 90 | 0 | 100 | 100 | 100 | 98 | 100 | 100 | 0 | 5 | 5 | Crabgrass, Large plant response rating [3, 24]: 90; Wheat plant response rating [4, 24]: 70; Corn plant response rating [5, 24]: 80; Wheat plant response rating [8, 23]: 35; Plant response rating, Wheat ([8]; 125 g ai/ha, 13 to 15 days): 85; Galium plant response rating [9, 23]: 100; Plant response rating, Galium ([9]; 125 g ai/ha, 13 to 15 days): 95; Lambsquarters plant response rating [10, 23]: 100; Plant response rating, Lambsquarters ([10]; 125 g ai/ha, 13 to 15 days): 100; Waterhemp plant response rating [11, 23]: 100; Plant response rating, Waterhemp ([11]; 125 g ai/ha, 13 to 15 days): 100; Plant response rating, Wheat [12, 22]: 5; Plant response rating (scale of 0 to 100 where 0 is no effect and 100 is complete control), Lambsquarters [13]: 55; Lambsquarters plant response rating [13]: 100; Plant response rating, Lambsquarters [13, 21]: 98; Plant response rating, Lambsquarters [13, 22]: 98; Plant response rating (scale of 0 to 100 where 0 is no effect and 100 is complete control), Barnyardgrass [14]: 5; Barnyardgrass plant response rating [14]: 10; Plant response rating, Barnyardgrass [14, 21]: 55; Plant response rating, Barnyardgrass [14, 22]: 10 |
| CCNC(=O)c1cc(CC)n(Cc2ccnc(OC(F)F)c2)n1 [Compound 130] | 100 | 100 | 100 | 100 | 70 | 20 | 70 | 15 | 90 | 95 | 0 | 100 | 75 | 98 | 85 | 100 | 100 | 0 | 0 | 5 | Crabgrass, Large plant response rating [3, 24]: 90; Wheat plant response rating [4, 24]: 90; Corn plant response rating [5, 24]: 90; Wheat plant response rating [8, 23]: 35; Plant response rating, Wheat ([8]; 125 g ai/ha, 13 to 15 days): 40; Galium plant response rating [9, 23]: 85; Plant response rating, Galium ([9]; 125 g ai/ha, 13 to 15 days): 98; Lambsquarters plant response rating [10, 23]: 100; Plant response rating, Lambsquarters ([10]; 125 g ai/ha, 13 to 15 days): 100; Waterhemp plant response rating [11, 23]: 100; Plant response rating, Waterhemp ([11]; 125 g ai/ha, 13 to 15 days): 100; Plant response rating, Wheat [12, 22]: 5; Plant response rating (scale of 0 to 100 where 0 is no effect and 100 is complete control), Lambsquarters [13]: 25; Lambsquarters plant response rating [13]: 30; Plant response rating, Lambsquarters [13, 21]: 75; Plant response rating, Lambsquarters [13, 22]: 65; Plant response rating (scale of 0 to 100 where 0 is no effect and 100 is complete control), Barnyardgrass [14]: 5; Barnyardgrass plant response rating [14]: 5; Plant response rating, Barnyardgrass [14, 21]: 10; Plant response rating, Barnyardgrass [14, 22]: 5 |
